In article doi:10.1101/2021.12.13.472350v1, “An amphipathic and cationic antimicrobial peptide kills colistin resistant Gram-negative pathogens in vivo” (bioRxiv, 2021):
≈ marks a conversion by molar mass, not a printed value.

Tests used:
[1] = test system: E. coli ATCC 25922; assay: In vivo sepsis/peritonitis mouse infection model; conditions: NMRI mice infected IP
[2] = test system: Klebsiella pneumoniae ATCC 13883; conditions: ATCC 13883, reference strain; MHB-II, 37°C, ~5×10^5 CFU/ml, triplicate
[3] = test system: E. coli ESBL20150072; assay: In vivo sepsis/peritonitis mouse infection model; conditions: NMRI mice infected IP; 10 mg/kg IP at 1 and 3 h; 5 hours post infection
Experimental: Outbred female NMRI mice (NMRI; weight 26–30 g; Taconic, Denmark) were used throughout the study, as previously described ([69], [70]). […] Colistin is recommended at a dose of 5-10 mg/kg, according to the European Medicines Agency (EMA) ([71]). The animals were kept in Macrolon type III cages in groups of six and allowed free access to feed and water. Experiments were initiated after an acclimatization period of 7 days. Inoculation (bacterial infection) was performed by intraperitoneal (IP) injection of 0.5 ml bacterial suspension containing 2×10^7 CFU/ml and 5% (wt/vol) mucin (Sigma-Aldrich). During experiments, groups of eight mice per cage constituting one experimental unit were randomly assigned to treatment (5 mg/kg ChIP and 10 mg/kg ChIP or colistin 10 mg/kg and 24 mg/kg) or no treatment (vehicle). Peptide and colistin was administered as a single bolus injection IP (volume injected 0.2 ml) at 1 hours and again 3. At various times post-infection, ∼200 µL blood from the jaw/cheek was collected in Eppendorf tubes with anti-coagulate (Sarstedt, Nümbrecht, Germany). Peritoneal lavage was performed by injecting 2.0 ml of sterile physiological saline IP. After 1 minute of abdominal massage, the peritoneum was opened and peritoneal lavage fluid (PLF) withdrawn. PLF was immediately placed in an insulated 4 °C cooling box for transportation and kept on ice at 4 °C. The mouse peritonitis model was repeated in duplicates for E. coli ATCC 25922 and A. baumannii ATCC 19606 nad in triplicate for E. coli ESBL20150072, while only a single experiment was carried out on A. baumannii CR17. Animals were sacrificed at various times prior to and following infection. Data from repeated experiments were pooled for analyses. Quantification of bacterial load was performed by spot plating of blood and peritoneal fluid samples from the mice. Dilution series were made in sterile 0.9% NaCl solution, from which 20 μl was spotted on solid lactose agar plates (Bromthymole Blue plates, SSI Diagnostica). Bacterial counts were recorded after overnight incubation at 37 °C in ambient air. The detection limit was 50 CFU/ml. The clinical condition of the mice was determined using a self-developed clinical score. For this score, mouse behavior and appearance were observed and evaluated for the parameters piloerection, attitude, locomotion, breathing and curiosity and awarded a score from 0 to 5 by a blinded observer. 0 = no clinical signs, 1 = slightly ruffled fur, 2 = ruffled fur and strenuous breathing, 3 = 2 plus lethargy, 4 = 3 plus hunched posture and decreased activity, and 5 = moribund. No significant difference in the clinical score between groups was observed 2 and 4 h post treatment. All mice were recorded for score 2.

[4] = test system: A. baumannii ATCC 19606; assay: In vivo sepsis/peritonitis mouse infection model; conditions: NMRI mice infected IP, 10 mg/kg IP at 1 and 3 h
[5] = test system: HeLa cells; conditions: ChIP concentrations of 40 µg/ml and above, 24 hours, DMEM without serum, Trypan Blue, triplicate
Experimental: HeLa cells were cultured in Dulbecco’s Modified Eagles Medium (DMEM) (Sigma) supplemented with 10% fetal calf serum (Sigma) and 2 mM glutamine at 37°C in a humid incubator with 5% CO2. Cell survival after 24 hours with various amounts of ChIP in DMEM without serum was determined by staining with Trypan Blue Stain (Gibco/Life Technologies). Experiments were performed in triplicate.

[6] = test system: Klebsiella pneumoniae ATCC 700603; conditions: ATCC 700603, SHV-18, mucoid; MHB-II, 37°C, ~5×10^5 CFU/ml, triplicate
[7] = test system: E. coli ATCC 25922; assay: MIC in the presence of 50% human serum; type: cell-based; conditions: 50% heat inactivated human male AB serum and 50% MHB-II; crude measure of protein binding/interference; triplicate
Experimental: The minimum inhibitory concentration (MIC) was determined as previously described ([68]), with minor modifications. Briefly, exponentially growing cultures in MHB-II (37°C) were diluted to an OD600 = 0.002, approximately 1×10^6 colony forming units (CFU) per ml. 100 µl of bacterial suspension was added to polypropylene microtiter plates containing 100 µl of Colistin or ChIP dilutions. Giving a final bacterial inoculum of ∼ 5×10^5 CFU/ml. Colistin sulfate salt (Sigma-Aldrich) and ChIP (Genscript >95% purity) was dissolved in H2O. ChIP MIC in serum was determined in the presence of 50% (heat inactivated) human serum (Sigma) and 50% MHB-II. All experiments were performed in triplicate.

[8] = test system: Acinetobacter baumannii ATCC 19606; conditions: ATCC 19606, reference strain; MHB-II, 37°C, ~5×10^5 CFU/ml, triplicate
[9] = test system: E. coli and A. baumannii; assay: Mouse peritonitis model, overall statement; type: in vivo; conditions: after two-dose treatment
Experimental: Outbred female NMRI mice (NMRI; weight 26–30 g; Taconic, Denmark) were used throughout the study, as previously described ([69], [70]). […] Colistin is recommended at a dose of 5-10 mg/kg, according to the European Medicines Agency (EMA) ([71]). The animals were kept in Macrolon type III cages in groups of six and allowed free access to feed and water. Experiments were initiated after an acclimatization period of 7 days. Inoculation (bacterial infection) was performed by intraperitoneal (IP) injection of 0.5 ml bacterial suspension containing 2×10^7 CFU/ml and 5% (wt/vol) mucin (Sigma-Aldrich). During experiments, groups of eight mice per cage constituting one experimental unit were randomly assigned to treatment (5 mg/kg ChIP and 10 mg/kg ChIP or colistin 10 mg/kg and 24 mg/kg) or no treatment (vehicle). […] Quantification of bacterial load was performed by spot plating of blood and peritoneal fluid samples from the mice. […] Bacterial counts were recorded after overnight incubation at 37 °C in ambient air. […] The clinical condition of the mice was determined using a self-developed clinical score. For this score, mouse behavior and appearance were observed and evaluated for the parameters piloerection, attitude, locomotion, breathing and curiosity and awarded a score from 0 to 5 by a blinded observer. […] All mice were recorded for score 2.

[10] = 5 mg/kg IP at 1 and 3 h post infection
[11] = 10 mg/kg IP at 1 and 3 h post infection

With `CC[C@@H](C)[C@@H](NC(=O)[C@@H](CCCCN)NC(=O)[C@@H](CCCCN)NC(=O)[C@@H](Cc1ccccc1)NC(=O)[C@@H](CC(C)C)NC(=O)[C@@H](CCCCN)NC(=O)[C@H](N)CCCCN)C(=O)N[C@H](CC(C)C)C(=O)N[C@H](CCCNC(=N)N)C(=O)N[C@H](Cc1ccc(O)cc1)C(=O)N[C@H](CC(C)C)C(N)=O` [ChIP] the “peritoneal bacterial titers after treatment” value [1, 10] was 1-5×10^5 CFU/ml, the “reduction of peritoneal bacterial titers” value [1, 10] was 2 logs and the “peritoneal CFUs after treatment” value [1, 11] was 1×10^3 CFU/ml. For the same compound, the “reduction of peritoneal CFUs” value [1, 11] was 4 logs, the MIC [2] was 4 µg/mL (≈ 2.76 µM) and the peritoneal titers [3] was 1×10^4 CFU/ml. The “reduction in peritoneal titers compared to vehicle (1×10^8 CFU/ml)” value [3] was 3 logs, the “reduction of peritoneal bacterial titers relative to saline control” value ([4]; after 5 hours) was 3-4 log and the peritoneal bacterial titers ([4]; after 5 hours, saline control around 1×10^8 CFU/ml) was 1×10^3-1×10^4 CFU/ml. The bacterial blood titers ([4]; detection limit 50 CFU/ml) was “reduce CFU/ml to the detection limit”, the HeLa cell survival [5] was “greatly reduced survival” and the MIC [6] was 8 µg/mL (≈ 5.52 µM). For the same compound, the “MIC in MHB-II + Human serum (50:50) versus MHB-II” value [7] was “did not change the MIC”, the MIC [8] was 8 µg/mL (≈ 5.52 µM) and the bacterial reduction intraperitoneal [9] was “up to 5 logs”.
